Measurements taken from PubChem BioAssay (NCI).
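Protocol summary: plate cells (96-well), add compound at 5 concentrations, incubate 48 h, interpolate endpoints linearly. GI50: concentration for 50% inhibition of growth. TGI: total growth inhibition.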

Assays:
Experiment in all cases: NCI-60 cell line screen, 48 h
[1] = system: EKVX NSCLC
[2] = system: RXF 393 renal
[3] = system: SF-539 CNS
[4] = system: SK-MEL-5 melanoma
[5] = system: UACC-62 melanoma
[6] = system: OVCAR-5 ovarian
[7] = system: COLO 205 colon
[8] = system: CCRF-CEM leukemia
[9] = system: NCI/ADR-RES ovarian
[10] = system: HCC-2998 colon

Row | SMILES | TGI [1] [µM] | TGI [2] [µM] | TGI [3] [µM] | TGI [4] [µM] | TGI [5] [µM] | TGI [6] [µM] | TGI [7] [µM] | TGI [8] [µM] | TGI [9] [µM] | TGI [10] [µM] | GI50 [1] [µM] | GI50 [2] [µM] | GI50 [3] [µM] | GI50 [4] [µM] | GI50 [5] [µM] | GI50 [6] [µM] | GI50 [7] [µM] | GI50 [9] [µM] | GI50 [10] [µM] | GI50 [8] [µM]
1 | Nc1nc(C(=O)O)c(N=Nc2ccccc2)c(=O)[nH]1 | > 100 | > 100 | > 100 | > 100 | > 100 | > 100 | > 100 | > 100 | > 100 |  |  |  |  |  |  |  |  |  |  | 
2 | O=C(Cc1ccccc1)C(c1ccccc1)S(=O)(=O)c1ccccc1 (configuration not stated) | > 100 | > 100 | > 100 | > 100 | > 100 | > 100 | > 100 | > 100 |  | > 100 |  |  |  |  |  |  |  |  |  | 
3 | O=C1/C(=C/c2ccccc2O)N=C(c2ccccc2)N1c1cc(C(F)(F)F)ccc1Cl | > 100 | 81.3 | > 100 | > 100 | > 100 | > 100 | > 100 |  | > 100 | > 100 | 38.3 | 29.9 | 59.5 | 62.2 | 69.3 | > 100 | > 100 | 46.6 | > 100 | 
4 | CC(N)CC(=O)O (configuration not stated) | > 5000 | > 5000 | > 5000 | > 5000 | > 5000 | > 5000 | > 5000 | > 5000 |  | > 5000 |  |  |  |  |  |  |  |  |  | 
5 | COc1cc(/C=C/C(=O)O[C@H]2[C@H](O[C@@H]3O[C@@H](C)[C@H](O)[C@@H](O)[C@H]3O)[C@@H](O)[C@H](OCCc3ccc(O)c(O)c3)O[C@@H]2COC2OCC(O)(CO)C2O)ccc1O (some centres not stated) | > 100 | > 100 |  | > 100 | > 100 | > 100 | > 100 |  | > 100 |  | > 100 | > 100 |  | > 100 | > 100 | > 100 | > 100 | > 100 |  | 
6 | O=C(CO)C1CC2C=CC1C2 (configuration not stated) | > 100 | > 100 | > 100 | > 100 | > 100 | > 100 | > 100 | > 100 |  |  |  |  |  |  |  |  |  |  |  | 
7 | O=C1C(Sc2ccc3ccccc3c2)=C(Sc2ccc3ccccc3c2)C(=O)c2ccccc21 | 23.8 | 32.6 | 22.8 | 12.4 | 14.2 | 27.1 | 12.8 |  | 44.9 | 19.6 |  |  |  |  |  |  |  |  |  | 
8 | CC(=O)CC(=O)CCC(=O)Nc1cccc(C(F)(F)F)c1 | > 100 |  | > 100 | > 100 | > 100 | > 100 | > 100 | > 100 |  | > 100 |  |  |  |  |  |  |  |  |  | 
9 | O=[N+]([O-])/C=C/c1ccc(Cl)cc1Cl |  |  | 33 | 29.4 | 31.3 | 46.3 | 38.9 | 20.8 |  | 29 |  |  |  |  |  |  |  |  |  | 
10 | N#CC1C(N)=NNC12Nc1ccccc1S2 (configuration not stated) | 60.9 |  |  | 28.7 | 30.3 | 76.5 | 82.5 |  | 54.1 |  | 15.4 |  |  | 8.93 | 12.2 | 31.5 | 26.5 | 17.7 |  | 
11 | Cn1c(C(=O)c2cccc3ccccc23)nc2ccccc21 |  | > 100 | > 100 | > 100 | > 100 | > 100 | > 100 | > 100 | > 100 | > 100 |  | > 100 | > 100 | > 100 | > 100 | > 100 | > 100 | > 100 | > 100 | > 100
12 | COC(=O)c1cc([N+](=O)[O-])cc([N+](=O)[O-])c1Cl | 28.8 | 3.12 | 4.22 | 10.9 | 3.1 | 10.2 | 3.1 |  | 8.71 | 28.3 | 14.1 | 1.72 | 1.98 | 3.03 | 1.55 | 2.7 | 1.65 | 2.8 | 14.4 | 
13 | CC1CCC2C(CN(CC3=C(C(F)(F)F)OC4OC5(C)CCC6C(C)CCC3C46OO5)CC3=C(C(F)(F)F)OC4OC5(C)CCC6C(C)CCC3C46OO5)=C(C(F)(F)F)OC3OC4(C)CCC1C32OO4 (configuration not stated) | 49.2 | 22.4 | 38.6 |  |  | > 100 | 28.6 | 28 | 73.2 |  | 19.5 | 2.45 | 11.9 |  |  | 15.3 | 7.64 | 26.8 |  | 4.8
14 | Cc1cc2c(c(=O)o1)C1=S(SC(c3ccccc3)=C1)S2 (configuration not stated) |  | 50.1 | 56.4 | > 100 | > 100 | > 100 | > 100 | > 100 | > 100 |  |  |  |  |  |  |  |  |  |  | 
15 | CCOC(=O)C(CCCNC(=O)OC(C)(C)C)N(Cc1ccc(OC)cc1OC)C(=O)CC(=O)CP(=O)(OCC)OCC (configuration not stated) | > 100 | > 100 | > 100 | > 100 | > 100 | > 100 | > 100 | > 100 |  | > 100 |  |  |  |  |  |  |  |  |  | 
16 | O=C(c1c(O)cc(O)cc1O)C1Cc2ccccc21 (configuration not stated) |  | > 100 | > 100 | > 100 | > 100 | > 100 | > 100 | > 100 |  | > 100 |  |  |  |  |  |  |  |  |  | 
17 | CC(=O)[CH-]C(C)=O.CC(=O)[CH-]C(C)=O.CC(=O)[CH-]C(C)=O.[Ga+3] | > 100 | > 100 | > 100 | > 100 | > 100 | > 100 | > 100 |  |  | > 100 | > 100 | > 100 | > 100 | > 100 | > 100 | > 100 | > 100 |  | > 100 | 
18 | COc1ccc2nc3cc(Cl)ccc3c(N3CCN(c4ccnc(N5CCN(C)CC5)n4)CC3)c2c1 |  | 2.78 | 3.3 | 28 | 3.69 | 3.9 | 3.67 | 4.15 | 12.4 | 3.69 |  | 1.36 | 1.77 | 11.3 | 1.86 | 1.81 | 1.94 | 3.66 | 1.99 | 1.61
